Experimental data published in patent EP1970064A1, “Silicon-derivatives for pet-imaging” (Bayer Schering Pharma Aktiengesellschaft, priority 2007, dated 2008).

Assay: Hydrolytic stability: hydrolysis of the 19F fluorosilane to the silanol at physiological pH (7.0)
Assay type: physicochemical
Settings: hydrolytic halflife of the 19F compound at pH 7.0, calculated from the kinetics
Protocol: The time dependent degree of hydrolysis of compounds of formula I in which X is a fluorine atom of isotope 19 to compounds of formula I in which X is a hydroxy group was determined at physiological pH (7.0). From the kinetics the hydrolytic halflife (t1/2) measured in hours [h] of compounds of formula I in which X is a fluorine atom of isotope 19 were calculated (Table 1, column 2).
The ratio of the hydrolytic halflifes of compounds of formula I in which X is a fluorine atom of isotope 19 and the radioactive halflife of the 18-F isotope (1.83 hours) is defined as relative stability (Table 1, column 3).
After 6 hours 90% of the 18-F isotope have been decayed.
Compounds of formula I in which X is a fluorine atom of isotope 18 are considered as useful for PET applications if the relative stability of their analogs bearing a fluorine atom of isotope 19 exceed a factor of four and if at least 50% of these compounds remain intact after 6 hours under hydrolytic conditions at pH 7.

Structure (SMILES)	t1/2
CC(C)[Si](F)(c1ccc(CCC(=O)O)cc1)C(C)C [Compound 5c - F, 3-[4-(Fluoro-diisopropyl-silanyl)-phenyl]-propionic acid]	59.0 h
CC(C)C[Si](F)(CC(C)C)c1ccc(C(=O)O)cc1 [Compound 5g-F, 4-(Fluoro-diisobutyl-silanyl)-benzoic acid]	3.5 h
CC(C)C[Si](F)(CC(C)C)c1ccc(COC2CCCCO2)cc1 (racemic) [Compound 3g-F, (RS)-Fluoro-diisobutyl-[4-(tetrahydro-pyran-2-yloxymethyl)-phenyl]-silane]	8.1 h
CC(C)C[Si](F)(CC(C)C)c1ccc(CC(=O)O)cc1 [Compound 5h-F, [4-(Fluoro-diisobutyl-silanyl)-phenyl]-acetic acid]	8.7 h
F[Si](c1ccccc1)(c1ccccc1)c1ccc(CCOC2CCCCO2)cc1 (racemic) [Compound 3f-F, (RS)-Fluoro-diphenyl-{4-[2-(tetrahydro-pyran-2-yloxy)-ethyl]-phenyl}-silane]	0.07 h
CC(C)[Si](F)(c1cccc(CCCOC2CCCCO2)c1)C(C)C (racemic) [Compound 3d - F, (RS)-Fluoro-diisopropyl-{3-[3-(tetrahydro-pyran-2-yloxy)-propyl]-phenyl}-silane]	> 100.0 h
CC(C)[Si](F)(c1ccc(CCCO)cc1)C(C)C [Compound 4c - F, 3-[4-(Fluoro-diisopropyl-silanyl)-phenyl]-propan-1-ol]	> 100.0 h
CC(C)[Si](F)(c1cccc(CCOC2CCCCO2)c1)C(C)C (racemic) [Compound 3e - F, (RS)-Fluoro-diisopropyl-{3-[2-(tetrahydro-pyran-2-yloxy)-ethyl]-phenyl}-silane]	> 100.0 h
CC(C)[Si](F)(c1cccc(CC(=O)O)c1)C(C)C [Compound 5e - F, [3-(Fluoro-diisopropyl-silanyl)-phenyl]-acetic acid]	20.0 h
